From patent US8697739B2, “Bicyclic acetyl-CoA carboxylase inhibitors and uses thereof” (Novartis AG, priority 2010, dated 2014)

Target: T1, human acetyl-CoA carboxylase 2 (ACC2) (Homo sapiens, UniProt O00763)
T1 construct: The cDNA encoding amino acids 144 to 2458 of human acetyl-CoA carboxylase 2; made in house; host or cells: Sf9 insect cells (baculovirus, pFastBac1)
Assay: Acetyl-CoA carboxylase enzyme assay (malonyl-CoA formation by LC/MS/MS)
Assay type: biochemical
Conditions: recombinant human ACC2 (aa 144-2458); read-out: IC50 ACC2
How it was run: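 Malonyl-CoA formation was read by LC/MS/MS MRM against a [13C3]-malonyl-CoA internal standard, after acetic acid quench. The enzyme was baculovirus/Sf9-expressed human ACC2 residues 144–2458, given 15 minutes room-temperature compound preincubation in HEPES pH 7.5 buffer with MgCl2, citrate and DTT. Substrate solution held 50 μM acetyl-CoA, 120 μM ATP and 2 mM KHCO3.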

T1 sequence (O00763 144-2458): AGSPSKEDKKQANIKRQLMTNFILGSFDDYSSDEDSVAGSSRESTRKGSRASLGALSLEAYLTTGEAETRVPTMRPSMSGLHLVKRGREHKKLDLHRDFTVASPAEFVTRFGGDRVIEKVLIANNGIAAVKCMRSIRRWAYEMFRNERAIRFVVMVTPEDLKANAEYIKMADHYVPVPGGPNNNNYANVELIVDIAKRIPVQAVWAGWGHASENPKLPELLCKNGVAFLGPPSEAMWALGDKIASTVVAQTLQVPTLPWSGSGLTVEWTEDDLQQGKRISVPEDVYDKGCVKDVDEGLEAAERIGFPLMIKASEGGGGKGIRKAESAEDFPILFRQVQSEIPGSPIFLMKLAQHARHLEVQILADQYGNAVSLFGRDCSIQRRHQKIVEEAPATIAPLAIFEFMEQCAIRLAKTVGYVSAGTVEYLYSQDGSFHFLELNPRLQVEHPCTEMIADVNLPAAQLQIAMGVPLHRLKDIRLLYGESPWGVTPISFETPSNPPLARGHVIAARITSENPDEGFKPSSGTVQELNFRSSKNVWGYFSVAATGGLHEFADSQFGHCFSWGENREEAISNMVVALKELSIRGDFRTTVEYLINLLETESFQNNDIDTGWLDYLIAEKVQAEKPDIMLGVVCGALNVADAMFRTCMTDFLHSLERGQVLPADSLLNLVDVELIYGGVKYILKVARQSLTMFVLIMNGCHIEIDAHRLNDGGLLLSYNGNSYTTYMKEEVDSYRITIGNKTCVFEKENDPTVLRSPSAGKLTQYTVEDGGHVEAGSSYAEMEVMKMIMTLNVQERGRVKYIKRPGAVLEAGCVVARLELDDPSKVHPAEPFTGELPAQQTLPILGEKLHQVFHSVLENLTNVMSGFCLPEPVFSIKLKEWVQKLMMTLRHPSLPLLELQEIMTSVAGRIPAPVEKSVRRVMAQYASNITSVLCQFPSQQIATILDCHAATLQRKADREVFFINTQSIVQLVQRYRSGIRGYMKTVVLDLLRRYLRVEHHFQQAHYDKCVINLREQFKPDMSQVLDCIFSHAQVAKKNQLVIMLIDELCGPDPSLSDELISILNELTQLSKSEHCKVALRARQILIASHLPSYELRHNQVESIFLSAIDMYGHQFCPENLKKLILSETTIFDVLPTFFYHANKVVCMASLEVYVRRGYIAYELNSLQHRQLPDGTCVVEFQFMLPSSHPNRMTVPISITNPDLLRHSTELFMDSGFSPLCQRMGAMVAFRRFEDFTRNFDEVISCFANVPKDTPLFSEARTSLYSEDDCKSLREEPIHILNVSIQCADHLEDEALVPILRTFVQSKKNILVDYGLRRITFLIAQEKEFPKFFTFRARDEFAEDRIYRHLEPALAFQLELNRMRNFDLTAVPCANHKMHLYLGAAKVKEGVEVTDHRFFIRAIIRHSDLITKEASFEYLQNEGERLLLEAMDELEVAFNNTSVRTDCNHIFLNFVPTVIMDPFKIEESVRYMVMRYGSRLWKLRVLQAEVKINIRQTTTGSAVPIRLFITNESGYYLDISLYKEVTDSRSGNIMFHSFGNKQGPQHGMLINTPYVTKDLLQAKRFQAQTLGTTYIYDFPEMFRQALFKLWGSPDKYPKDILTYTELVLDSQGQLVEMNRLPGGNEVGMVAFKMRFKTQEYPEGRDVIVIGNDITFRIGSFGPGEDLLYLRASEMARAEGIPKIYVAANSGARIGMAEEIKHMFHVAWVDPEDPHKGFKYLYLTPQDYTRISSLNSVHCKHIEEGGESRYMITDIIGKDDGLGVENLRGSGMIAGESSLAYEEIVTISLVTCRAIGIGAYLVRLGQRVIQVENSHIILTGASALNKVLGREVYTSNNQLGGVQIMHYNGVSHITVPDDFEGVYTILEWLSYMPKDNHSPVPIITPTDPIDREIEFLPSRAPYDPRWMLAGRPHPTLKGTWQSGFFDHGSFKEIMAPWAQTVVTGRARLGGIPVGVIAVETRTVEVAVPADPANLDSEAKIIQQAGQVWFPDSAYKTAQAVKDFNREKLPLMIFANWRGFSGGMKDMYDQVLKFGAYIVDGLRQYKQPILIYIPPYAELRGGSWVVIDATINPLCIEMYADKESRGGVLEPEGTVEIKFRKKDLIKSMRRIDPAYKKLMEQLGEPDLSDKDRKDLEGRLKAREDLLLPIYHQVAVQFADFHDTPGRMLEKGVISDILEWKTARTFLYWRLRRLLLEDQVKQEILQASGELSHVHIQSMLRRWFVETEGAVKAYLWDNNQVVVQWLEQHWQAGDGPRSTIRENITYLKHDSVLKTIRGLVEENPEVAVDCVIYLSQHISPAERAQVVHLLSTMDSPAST

| SMILES | IC50 |
| --- | --- |
| Cc1cc(CO)ccc1-c1cc2ccc(S(=O)(=O)N[C@H]3CC[C@H](C(=O)N4CCCCC4)CC3)cc2[nH]1 [Example 314, 2-(4-(hydroxymethyl)-2-methylphenyl)-N-((1r,4r)-4-(piperidine-1-carbonyl)cyclohexyl)-1H-indole-6-sulfonamide] | 60 nM |
| CC(C)c1nnc([C@H]2CC[C@H](NS(=O)(=O)c3ccc4[nH]c(Nc5ccccc5)nc4c3)CC2)o1 [Example 595, N-((1r,4r)-4-(5-isopropyl-1,3,4-oxadiazol-2-yl)cyclohexyl)-2-(phenylamino)-1H-benzo[d]imidazole-5-sulfonamide] | 259 nM |
| C[C@@H](NC(=O)[C@H]1CC[C@H](NS(=O)(=O)c2ccc3[nH]c(Nc4ccc(N5CCOCC5)nc4)nc3c2)CC1)c1ccccc1 [Example 571, (1r,4R)-4-(2-(6-morpholinopyridin-3-ylamino)-1H-benzo[d]imidazole-5-sulfonamido)-N-((R)-1-phenylethyl)cyclohexanecarboxamide] | < 10 nM |
| COC(=O)c1cccc(-c2nc3cc(S(=O)(=O)N[C@H]4CC[C@H](c5nnc(C(C)(C)C)o5)CC4)ccc3[nH]2)c1 [Example 608, methyl 3-(5-(N-((1r,4r)-4-(5-tert-butyl-1,3,4-oxadiazol-2-yl)cyclohexyl)sulfamoyl)-1H-benzo[d]imidazol-2-yl)benzoate] | 971 nM |
| CN1CCN(c2ccc3cc(S(=O)(=O)N[C@H]4CC[C@H](C(=O)N[C@H](c5ccccc5)C(C)(C)O)CC4)ccc3n2)CC1 [Example 258, (1r,4R)-N-((R)-2-hydroxy-2-methyl-1-phenylpropyl)-4-(2-(4-methylpiperazin-1-yl)quinoline-6-sulfonamido)cyclohexanecarboxamide] | 80 nM |
| COc1ccc2cc(S(=O)(=O)N[C@H]3CC[C@H](C(=O)N[C@H](C)c4ccc(F)cc4)CC3)ccc2n1 [Example 49, (1r,4R)-N-((R)-1-(4-fluorophenyl)ethyl)-4-(2-methoxyquinoline-6-sulfonamido)cyclohexanecarboxamide] | 43 nM |
| CCOc1ccc2cc(S(=O)(=O)N[C@H]3CC[C@H](C(=O)N[C@H](CC(=O)O)c4ccccc4)CC3)ccc2n1 [Example 228, (R)-3-((1r,4R)-4-(2-ethoxyquinoline-6-sulfonamido)cyclohexanecarboxamido)-3-phenylpropanoic acid] | 213 nM |
| O=C([C@H]1CC[C@H](NS(=O)(=O)c2ccc3cc(-c4ccccc4C(F)(F)F)[nH]c3c2)CC1)N1CCCC(C(F)(F)F)C1 (stereo partly shown) [Example 330, 2-(2-(trifluoromethyl)phenyl)-N-((1r,4r)-4-(3-(trifluoromethyl)piperidine-1-carbonyl)cyclohexyl)-1H-indole-6-sulfonamide] | 3600 nM |
| C[C@@H](NC(=O)[C@H]1CC[C@H](NS(=O)(=O)c2ccc3c(c2)N(C)[C@H](C(=O)O)CC3)CC1)c1ccc(F)cc1 [Example 250, (S)-7-(N-((1R,4S)-4-((R)-1-(4-fluorophenyl)ethylcarbamoyl)cyclohexyl)sulfamoyl)-1-methyl-1,2,3,4-tetrahydroquinoline-2-carboxylic acid] | 595 nM |
| COc1ccc(-c2cc3ccc(S(=O)(=O)N[C@H]4CC[C@H](C(=O)N5CCOC[C@@H]5C(C)C)CC4)cc3n2C)cc1 [Example 441, N-((1S,4r)-4-((S)-3-isopropylmorpholine-4-carbonyl)cyclohexyl)-2-(4-methoxyphenyl)-1-methyl-1H-indole-6-sulfonamide] | < 10 nM |
| COCC[C@@H](NC(=O)[C@H]1CC[C@H](NS(=O)(=O)c2ccc3c(ccn3C)c2)CC1)c1ccccc1 [Example 679, (1r,4R)-N-((R)-3-methoxy-1-phenylpropyl)-4-(1-methyl-1H-indole-5-sulfonamido)cyclohexanecarboxamide] | 110 nM |
| C[C@@H]1CNc2ncc(S(=O)(=O)N[C@H]3CC[C@H](C(=O)N[C@H](C)c4ccc(F)cc4)CC3)cc2N1 [Example 172, (1R,4R)-N-((R)-1-(4-fluorophenyl)ethyl)-4-((R)-2-methyl-1,2,3,4-tetrahydropyrido[3,2-b]pyrazine-7-sulfonamido)cyclohexanecarboxamide] | 212 nM |
| COCCn1c(-c2ccccc2)nc2cc(S(=O)(=O)N[C@H]3CC[C@H](C(=O)N[C@H](C)c4ccc(F)cc4)CC3)ccc21 [Example 126, (1r,4R)-N-((R)-1-(4-fluorophenyl)ethyl)-4-(1-(2-methoxyethyl)-2-phenyl-1H-benzo[d]imidazole-5-sulfonamido)cyclohexanecarboxamide] | 71 nM |
| CCOc1ccc2cc(S(=O)(=O)N[C@H]3CC[C@H](C(=O)N4CCNC[C@@H]4C(=O)O)CC3)ccc2n1 [Example 246, (R)-1-((1r,4R)-4-(2-ethoxyquinoline-6-sulfonamido)cyclohexanecarbonyl)piperazine-2-carboxylic acid] | > 35000 nM |
| CC(C)[C@H]1COCCN1C(=O)[C@H]1CC[C@H](NS(=O)(=O)c2ccc3c(Cl)c(-c4ccccc4)[nH]c3c2)CC1 [Example 468, 3-chloro-N-((1S,4r)-4-((S)-3-isopropylmorpholine-4-carbonyl)cyclohexyl)-2-phenyl-1H-indole-6-sulfonamide] | < 10 nM |
| C[C@@H](NC(=O)[C@H]1CC[C@H](NS(=O)(=O)c2ccc3cc(CCOS(C)(=O)=O)[nH]c3c2)CC1)c1ccc(F)cc1 [Example 306, 2-(6-(N-((1R,4r)-4-((R)-1-(4-fluorophenyl)ethylcarbamoyl)cyclohexyl)sulfamoyl)-1H-indol-2-yl)ethyl methanesulfonate] | 50 nM |
| CC(C)CCC(=O)N1CCNc2ncc(S(=O)(=O)N[C@H]3CC[C@H](C(=O)N[C@H](C)c4ccc(F)cc4)CC3)cc21 [Example 220, (1r,4R)-N-((R)-1-(4-fluorophenyl)ethyl)-4-(1-(4-methylpentanoyl)-1,2,3,4-tetrahydropyrido[3,2-b]pyrazine-7-sulfonamido)cyclohexanecarboxamide] | 875 nM |
| CC(C)OC(=O)c1ccc(NS(=O)(=O)c2ccc3[nH]c(-c4ccc(CN5CCN(C)CC5)cc4)nc3c2)cc1 [Example 561, isopropyl 4-(2-(4-((4-methylpiperazin-1-yl)methyl)phenyl)-1H-benzo[d]imidazole-5-sulfonamido)benzoate] | 316 nM |
| Cn1c(CCC(=O)O)c(Cl)c2ccc(S(=O)(=O)N[C@H]3CC[C@H](C(=O)N4CCCC4c4ccc(F)cc4)CC3)cc21 (stereo partly shown) [Example 372, 3-(3-chloro-6-(N-((1r,4r)-4-(2-(4-fluorophenyl)pyrrolidine-1-carbonyl)cyclohexyl)sulfamoyl)-1-methyl-1H-indol-2-yl)propanoic acid] | 45 nM |
| COC(=O)CCc1ccc(-c2cc3ccc(S(=O)(=O)N[C@H]4CC[C@H](C(=O)N5CCCC5c5ccc(F)cc5)CC4)cc3n2C)cc1 (stereo partly shown) [Example 386, methyl 3-(4-(6-(N-((1r,4r)-4-(2-(4-fluorophenyl)pyrrolidine-1-carbonyl)cyclohexyl)sulfamoyl)-1-methyl-1H-indol-2-yl)phenyl)propanoate] | 25 nM |
| CC(C)OC(=O)c1ccc(NS(=O)(=O)c2ccc3[nH]c(-c4ccc(CN5CCOCC5)cc4)nc3c2)cc1 [Example 562, isopropyl 4-(2-(4-(morpholinomethyl)phenyl)-1H-benzo[d]imidazole-5-sulfonamido)benzoate] | 676 nM |
| CCOC(=O)Cc1nc2cc(S(=O)(=O)N[C@H]3CC[C@H](C(=O)N[C@H](C)c4ccc(F)cc4)CC3)ccc2[nH]1 [Example 667, ethyl 2-(5-(N-((1R,4r)-4-((R)-1-(4-fluorophenyl)ethylcarbamoyl)cyclohexyl)sulfamoyl)-1H-benzo[d]imidazol-2-yl)acetate] | 615 nM |
| COc1ccc(-c2nc3ccc(S(=O)(=O)Nc4ccc(C(=O)OC(C)C)cc4)cc3[nH]2)cc1OC [Example 516, isopropyl 4-(2-(3,4-dimethoxyphenyl)-1H-benzo[d]imidazole-6-sulfonamido)benzoate] | 1210 nM |
| COCCc1ccc(-c2cc3ccc(S(=O)(=O)N[C@H]4CC[C@H](C(=O)N5CCOC[C@@H]5C)CC4)cc3n2C)cc1 [Example 444, 2-(4-(2-methoxyethyl)phenyl)-1-methyl-N-((1S,4r)-4-((S)-3-methylmorpholine-4-carbonyl)cyclohexyl)-1H-indole-6-sulfonamide] | 20 nM |
| [2H]C([2H])([2H])N1C(=O)COc2ccc(S(=O)(=O)N[C@H]3CC[C@H](C(=O)N[C@H](C)c4ccc(F)cc4)CC3)cc21 [Example 155, (1r,4R)-N-((R)-1-(4-fluorophenyl)ethyl)-4-(3-oxo-4-(trideuteriomethyl)-3,4-dihydro-2H-benzo[b][1,4]oxazine-6-sulfonamido)cyclohexanecarboxamide] | 175 nM |
| Cn1c(-c2ccc(CCC(=O)O)cc2)cc2ccc(S(=O)(=O)N[C@H]3CC[C@H](C(=O)N4CCC[C@@H]4c4ccc(F)cc4)CC3)cc21 [Example 392, 3-(4-(6-(N-((1R,4r)-4-((R)-2-(4-fluorophenyl)pyrrolidine-1-carbonyl)cyclohexyl)sulfamoyl)-1-methyl-1H-indol-2-yl)phenyl)propanoic acid] | 115 nM |
| Cn1c(C2CC2)c(C#N)c2ccc(S(=O)(=O)N[C@H]3CC[C@H](C(=O)N4CCC[C@@H]4C(F)(F)F)CC3)cc21 [Example 389, 3-cyano-2-cyclopropyl-1-methyl-N-((1R,4r)-4-((R)-2-(trifluoromethyl)pyrrolidine-1-carbonyl)cyclohexyl)-1H-indole-6-sulfonamide] | 15 nM |
| C[C@@H](NC(=O)[C@H]1CC[C@H](NS(=O)(=O)c2ccc3[nH]c(-c4ccc(CN5CCN(C)CC5)cc4)nc3c2)CC1)c1ccccc1 [Example 576, (1r,4R)-4-(2-(4-((4-methylpiperazin-1-yl)methyl)phenyl)-1H-benzo[d]imidazole-5-sulfonamido)-N-((R)-1-phenylethyl)cyclohexanecarboxamide] | < 10 nM |
